We go through 6 molecules from paper PMC8128076 (RSC Medicinal Chemistry, 2021).

As a reminder, the Ki is a measure of affinity in units of concentration, obtained from inhibition or displacement. As usually defined, the Papp is a coefficient for how fast a substance crosses the barrier. Low readings indicate poor permeation, high ones ready permeation.

For one data set, the target named is PI3Kα (p110α) (Homo sapiens, UniProt P42336). The following applies: read-out: In vitro binding assays Ki PI3Kα; TR-FRET displacement, mean ± SD; previously reported, ref [14]; cited from earlier work.
The subject of another data set is human MDR1 (P-gp). The experiment in a line: in vitro. As to conditions: dog, MDCK-MDR1.
The test system of data set [1] is phosphorylated S6 ribosomal protein [pS6, Ser235/236]. As to conditions: read-out: Cellular assays IC50 pS6 S235/236; A2058 melanoma cells; previously reported, ref [14]; cited from earlier work.
Data set [2] has as its target T1, mTOR (Homo sapiens, UniProt P42345). As to conditions: previously reported, ref [14], cited from earlier work; for SI (selectivity index), Ki(PI3Kα)/Ki(mTOR): mTOR over PI3Kα.
The target of data set [3] is T1, mTOR. In words: LanthaScreen TR-FRET displacement binding assay, mTOR. (In general: In TR-FRET formats the signal depends on donor and acceptor labels being close together.)

Read-outs that look alike come from different tables or passages of the source.

T1 sequence (P42345 1360-2549): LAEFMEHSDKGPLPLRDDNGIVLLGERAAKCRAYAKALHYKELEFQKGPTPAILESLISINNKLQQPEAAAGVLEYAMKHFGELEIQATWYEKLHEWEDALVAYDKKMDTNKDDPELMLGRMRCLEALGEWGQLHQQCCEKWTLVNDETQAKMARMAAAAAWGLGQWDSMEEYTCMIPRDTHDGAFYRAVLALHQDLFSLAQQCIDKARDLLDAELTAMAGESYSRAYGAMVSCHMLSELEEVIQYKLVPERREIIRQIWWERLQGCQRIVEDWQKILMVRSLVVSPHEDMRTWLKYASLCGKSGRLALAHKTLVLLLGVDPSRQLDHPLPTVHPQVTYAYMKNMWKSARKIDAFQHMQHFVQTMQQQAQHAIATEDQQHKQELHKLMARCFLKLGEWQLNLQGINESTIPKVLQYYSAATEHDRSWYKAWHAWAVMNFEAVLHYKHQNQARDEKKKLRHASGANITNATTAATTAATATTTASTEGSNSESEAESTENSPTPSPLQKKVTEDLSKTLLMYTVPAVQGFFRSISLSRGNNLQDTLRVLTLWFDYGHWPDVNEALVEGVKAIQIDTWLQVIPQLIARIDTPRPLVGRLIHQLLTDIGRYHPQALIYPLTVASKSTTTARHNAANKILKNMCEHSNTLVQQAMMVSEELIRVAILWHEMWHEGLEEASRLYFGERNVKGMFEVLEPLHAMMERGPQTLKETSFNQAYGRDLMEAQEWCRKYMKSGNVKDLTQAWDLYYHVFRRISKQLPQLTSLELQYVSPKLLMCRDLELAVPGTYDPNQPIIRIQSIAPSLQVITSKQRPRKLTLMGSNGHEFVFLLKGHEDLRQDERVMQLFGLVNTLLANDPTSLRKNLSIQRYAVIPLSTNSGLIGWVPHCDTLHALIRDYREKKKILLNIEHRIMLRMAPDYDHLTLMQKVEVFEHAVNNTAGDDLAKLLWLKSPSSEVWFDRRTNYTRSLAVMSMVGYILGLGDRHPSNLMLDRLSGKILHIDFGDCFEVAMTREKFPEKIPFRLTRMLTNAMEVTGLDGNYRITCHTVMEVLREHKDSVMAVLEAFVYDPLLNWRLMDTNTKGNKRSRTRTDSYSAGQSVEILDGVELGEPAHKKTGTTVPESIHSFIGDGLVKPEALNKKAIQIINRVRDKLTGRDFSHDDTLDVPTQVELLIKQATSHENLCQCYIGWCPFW
Chain of PI3Kα (p110α) (P42336 whole entry): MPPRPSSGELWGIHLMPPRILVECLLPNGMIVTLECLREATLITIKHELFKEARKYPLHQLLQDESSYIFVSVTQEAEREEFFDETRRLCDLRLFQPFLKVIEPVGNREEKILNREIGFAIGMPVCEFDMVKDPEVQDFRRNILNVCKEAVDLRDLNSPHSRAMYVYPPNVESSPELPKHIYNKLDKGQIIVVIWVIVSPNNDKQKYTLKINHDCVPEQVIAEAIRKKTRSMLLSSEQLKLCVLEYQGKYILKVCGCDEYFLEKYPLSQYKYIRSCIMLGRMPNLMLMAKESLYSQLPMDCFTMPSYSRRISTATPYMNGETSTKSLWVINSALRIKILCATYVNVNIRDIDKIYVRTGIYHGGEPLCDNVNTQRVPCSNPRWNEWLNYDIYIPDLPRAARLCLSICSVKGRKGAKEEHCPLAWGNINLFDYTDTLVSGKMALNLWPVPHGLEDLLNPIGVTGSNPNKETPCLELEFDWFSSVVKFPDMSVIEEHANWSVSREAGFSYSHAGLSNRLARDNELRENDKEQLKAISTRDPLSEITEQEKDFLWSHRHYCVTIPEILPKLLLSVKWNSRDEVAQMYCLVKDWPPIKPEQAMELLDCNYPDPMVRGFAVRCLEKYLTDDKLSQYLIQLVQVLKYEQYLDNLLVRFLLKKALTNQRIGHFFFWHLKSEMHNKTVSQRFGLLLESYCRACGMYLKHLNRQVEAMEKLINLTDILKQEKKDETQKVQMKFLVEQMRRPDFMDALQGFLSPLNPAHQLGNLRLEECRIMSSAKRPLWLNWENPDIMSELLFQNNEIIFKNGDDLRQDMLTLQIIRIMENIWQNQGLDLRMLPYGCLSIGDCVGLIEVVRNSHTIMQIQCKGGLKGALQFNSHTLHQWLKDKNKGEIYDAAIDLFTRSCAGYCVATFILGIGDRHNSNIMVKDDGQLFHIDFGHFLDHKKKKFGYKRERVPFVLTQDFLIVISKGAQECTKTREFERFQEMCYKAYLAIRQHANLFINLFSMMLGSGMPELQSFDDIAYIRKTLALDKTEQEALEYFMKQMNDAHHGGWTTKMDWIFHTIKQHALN
Chain of PI3Kα (p110α) (P27986 whole entry partner): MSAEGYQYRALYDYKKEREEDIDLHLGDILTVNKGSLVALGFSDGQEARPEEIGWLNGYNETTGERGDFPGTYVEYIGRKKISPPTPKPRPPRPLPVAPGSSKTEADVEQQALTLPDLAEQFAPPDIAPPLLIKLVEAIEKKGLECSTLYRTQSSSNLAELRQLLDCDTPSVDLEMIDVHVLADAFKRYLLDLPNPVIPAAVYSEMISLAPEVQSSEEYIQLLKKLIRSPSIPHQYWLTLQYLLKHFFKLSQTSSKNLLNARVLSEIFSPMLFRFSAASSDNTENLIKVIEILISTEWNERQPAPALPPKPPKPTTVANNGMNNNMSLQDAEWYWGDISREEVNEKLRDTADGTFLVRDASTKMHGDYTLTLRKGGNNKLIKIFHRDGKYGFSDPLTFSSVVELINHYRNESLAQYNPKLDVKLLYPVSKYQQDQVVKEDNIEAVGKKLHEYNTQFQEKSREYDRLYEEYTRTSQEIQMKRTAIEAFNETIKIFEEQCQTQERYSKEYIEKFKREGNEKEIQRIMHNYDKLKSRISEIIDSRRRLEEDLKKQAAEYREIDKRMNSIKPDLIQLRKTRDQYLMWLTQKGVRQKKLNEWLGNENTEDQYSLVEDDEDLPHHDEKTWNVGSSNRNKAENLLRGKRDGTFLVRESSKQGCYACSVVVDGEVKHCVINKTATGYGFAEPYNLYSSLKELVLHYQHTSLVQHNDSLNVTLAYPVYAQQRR

For the molecule `C[C@@H]1COCCN1c1nc(-c2cnc(N)cn2)nc2c1C[C@@H]1COCCN21` [Compound 12b, reference compound], the inhibition constant Ki on PI3Kα (p110α) is 1690 ± 277 nM. In the data set with human MDR1 (P-gp), this molecule returned an apparent permeability coefficient (Papp) of under 60 ×10⁻⁶ cm/s. Besides, the IC50 in data set [1] is 60 ± 13 nM. The “SI (selectivity index), Ki(PI3Kα)/Ki(mTOR)” value (“SI (selectivity index)” below) on mTOR [2] was 212.
As to `C[C@@H]1COCCN1c1nc(-c2cnc(N)s2)nc2c1C[C@@H]1COCCN21` [Compound 6], in the data set with human MDR1 (P-gp), the apparent permeability coefficient (Papp) is under 60 ×10⁻⁶ cm/s.
Take `C[C@@H]1COCCN1c1nc(-c2ccc(N)nc2)nc2c1C[C@@H]1COCCN21` [Compound 5]: the Ki is 2150 ± 400 nM at PI3Kα (p110α) and 10 ± 1.6 nM on mTOR [2] (read-out: In vitro binding assays Ki mTOR, TR-FRET displacement, mean ± SD). The IC50 in data set [1] is 61 ± 12 nM. Besides, the “SI (selectivity index)” value at mTOR [2] is listed as 215.
As for `C[C@@H]1COCCN1c1nc(-c2nc(N)ns2)nc2c1C[C@@H]1COCCN21` [Compound 2], at mTOR [3] (1,2,4-thiadiazole 2 versus pyrimidine 1), the “fold decrease in mTOR affinity” value is given as over 10 fold.
Regarding `C[C@@H]1COCCN1c1nc(-c2nnc(N)s2)nc2c1C[C@@H]1COCCN21` [Compound 4], the Papp in the data set on human MDR1 (P-gp) is under 60 ×10⁻⁶ cm/s.
`C[C@@H]1COCCN1c1nc(-c2cnc(N)nc2C(F)F)nc2c1C[C@@H]1COCCN21` [Compound 8]: on mTOR [3] (mTOR over PI3Kα), the “SI (selectivity index)” value is recorded as under 1.
